{"source": "patent US6737383B1", "about": "“Herbicidal oxadiazolidines” (priority 1999, dated 2004)", "key": {"[1]": {"test_system": "soybean", "assay": "Test C postemergence soybean", "format": "in vivo, Glycine max", "settings": "0 to 100 scale, 0 no effect, 100 complete control", "procedure": "(§1) Compounds evaluated in this test were formulated in a non-phytotoxic solvent mixture which included a surfactant and applied to plants that were grown for various periods of time before treatment (postemergence application). A mixture of sandy loam soil and greenhouse potting mix in a 60:40 ratio was used for the postemergence test.\n(§2) Plantings of these crops and weed species were adjusted to produce plants of appropriate size for the postemergence test. All plant species were grown using normal greenhouse practices. Crop and weed species include arrowleaf sida (Sida rhombifolia), barnyardgrass (Echinochloa crus-galli), cocklebur (Xanthium strumarium), common ragweed (Ambrosia elatior), corn (Zea mays), cotton (Gossypium hirsutum), eastern black nightshade (Solanum ptycanthum), fall panicum (Panicum dichotomiflorum), field bindweed (Convolvulus arvensis), giant foxtail (Setaria faberii), hairy beggarticks (Bidens pilosa), ivyleaf morningglory (Ipomoea hederacea), johnsongrass (Sorghum halepense), ladysthumb smartweed (Polygonum persicaria), lambsquarters (Chenopodium album), large crabgrass (Digitaria sanguinalis), purple nutsedge (Cyperus rotundus), redroot pigweed (Amaranthus retroflexus), soybean (Glycine max), surinam grass (Brachiaria decumbens), velvetleaf (Abutilon theophrasti) and wild poinsettia (Euphorbia heterophylla).\n(§3) Treated plants and untreated controls were maintained in a greenhouse for approximately 14, to 21 days, after which all treated plants were compared to untreated controls and visually evaluated. Plant response ratings, summarized in Table C, were based upon a 0 to 100 scale where 0 was no effect and 100 was complete control. A dash response (−) means no test result."}, "[2]": {"test_system": "velvetleaf", "assay": "Test C postemergence velvetleaf", "format": "in vivo, Abutilon theophrasti", "settings": "0 to 100 scale, 0 no effect, 100 complete control", "outline": "(§4)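 Postemergence spray; formulation = non-phytotoxic solvent + surfactant; soil 60:40 sandy loam:greenhouse potting mix; greenhouse, ~14–21 d; visual rating vs untreated, 0–100 (100 = complete control).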"}, "[3]": {"test_system": "corn", "assay": "Test C postemergence corn", "format": "in vivo, Zea mays", "settings": "0 to 100 scale, 0 no effect, 100 complete control", "procedure": "as §1, §2, §3"}, "[4]": {"test_system": "redroot pigweed", "assay": "Test C postemergence redroot pigweed", "format": "in vivo, Amaranthus retroflexus", "settings": "0 to 100 scale, 0 no effect, 100 complete control", "outline": "as §4"}, "[5]": {"test_system": "fall panicum", "assay": "Test C postemergence fall panicum", "format": "in vivo, Panicum dichotomiflorum", "settings": "0 to 100 scale, 0 no effect, 100 complete control", "procedure": "as §1, §2, §3"}, "[6]": {"test_system": "common ragweed", "assay": "Test C postemergence common ragweed", "format": "in vivo, Ambrosia elatior", "settings": "0 to 100 scale, 0 no effect, 100 complete control", "outline": "as §4"}, "[7]": {"test_system": "lambsquarters", "assay": "Test C postemergence lambsquarters", "format": "in vivo, Chenopodium album", "settings": "0 to 100 scale, 0 no effect, 100 complete control", "outline": "as §4"}, "[8]": {"test_system": "field bindweed", "assay": "Test C postemergence field bindweed", "format": "in vivo, Convolvulus arvensis", "settings": "0 to 100 scale, 0 no effect, 100 complete control", "procedure": "as §1, §2, §3"}, "[9]": {"test_system": "purple nutsedge", "assay": "Test C postemergence purple nutsedge", "format": "in vivo, Cyperus rotundus", "settings": "0 to 100 scale, 0 no effect, 100 complete control", "procedure": "as §1, §2, §3"}, "[10]": {"test_system": "eastern black nightshade", "assay": "Test C postemergence eastern black nightshade", "format": "in vivo, Solanum ptycanthum", "settings": "0 to 100 scale, 0 no effect, 100 complete control", "outline": "as §4"}, "[11]": {"test_system": "arrowleaf sida", "assay": "Test C postemergence arrowleaf sida", "format": "in vivo, Sida rhombifolia", "settings": "0 to 100 scale, 0 no effect, 100 complete control", "outline": "as §4"}, "[12]": {"test_system": "johnsongrass", "assay": "Test C postemergence johnsongrass", "format": "in vivo, Sorghum halepense", "settings": "0 to 100 scale, 0 no effect, 100 complete control", "outline": "as §4"}, "[13]": {"test_system": "ladysthumb smartweed", "assay": "Test C postemergence ladysthumb smartweed", "format": "in vivo, Polygonum persicaria", "settings": "0 to 100 scale, 0 no effect, 100 complete control", "procedure": "as §1, §2, §3"}, "[14]": {"test_system": "hairy beggarticks", "assay": "Test C postemergence hairy beggarticks", "format": "in vivo, Bidens pilosa", "settings": "0 to 100 scale, 0 no effect, 100 complete control", "procedure": "as §1, §2, §3"}, "[15]": {"test_system": "sandbur", "assay": "Test D sandbur", "format": "in vivo, Cenchrus echinatus", "settings": "Rate 64 g/ha, Postemergence; 0 to 100 scale, 0 no injury, 100 complete control"}, "[16]": {"test_system": "common ragweed", "assay": "Test D common ragweed", "format": "in vivo, Ambrosia elatior", "settings": "Rate 64 g/ha, Postemergence; 0 to 100 scale, 0 no injury, 100 complete control"}, "[17]": {"test_system": "Alexandergrass", "assay": "Test D Alexandergrass", "format": "in vivo, Brachiaria plantaginea", "settings": "Rate 64 g/ha, Postemergence; 0 to 100 scale, 0 no injury, 100 complete control"}, "[18]": {"test_system": "purple nutsedge", "assay": "Test D purple nutsedge", "format": "in vivo, Cyperus rotundus", "settings": "Rate 64 g/ha, Postemergence; 0 to 100 scale, 0 no injury, 100 complete control"}, "[19]": {"test_system": "large crabgrass", "assay": "Test D large crabgrass", "format": "in vivo, Digitaria sanguinalis", "settings": "Rate 64 g/ha, Postemergence; 0 to 100 scale, 0 no injury, 100 complete control"}, "[20]": {"test_system": "goosegrass", "assay": "Test D goosegrass", "format": "in vivo, Eleusine indica", "settings": "Rate 64 g/ha, Postemergence; 0 to 100 scale, 0 no injury, 100 complete control"}, "[21]": {"test_system": "guineagrass", "assay": "Test D guineagrass", "format": "in vivo, Panicum maximum", "settings": "Rate 64 g/ha, Postemergence; 0 to 100 scale, 0 no injury, 100 complete control"}}}
{"smiles": "CC(C)N(C(=O)n1oc(=O)n(Cc2cccs2)c1=O)c1ccccc1", "note": "[Compound 103]", "values": [{"measurement": "Plant response rating, Soybean", "setting": "[1]; Rate 140 g/ha", "result": 30}, {"measurement": "Plant response rating, Soybean", "setting": "[1]; Rate 280 g/ha", "result": 30}, {"measurement": "Plant response rating, Soybean", "setting": "[1]; Rate 560 g/ha", "result": 35}, {"measurement": "Plant response rating, Soybean", "setting": "[1]; Rate 1120 g/ha", "result": 35}, {"measurement": "Plant response rating, Velvetleaf", "setting": "[2]; Rate 140 g/ha", "result": 0}, {"measurement": "Plant response rating, Velvetleaf", "setting": "[2]; Rate 280 g/ha", "result": 5}, {"measurement": "Plant response rating, Velvetleaf", "setting": "[2]; Rate 560 g/ha", "result": 10}, {"measurement": "Plant response rating, Velvetleaf", "setting": "[2]; Rate 1120 g/ha", "result": 45}, {"measurement": "Plant response rating, Corn", "setting": "[3]; Rate 140 g/ha", "result": 0}, {"measurement": "Plant response rating, Corn", "setting": "[3]; Rate 280 g/ha", "result": 0}, {"measurement": "Plant response rating, Corn", "setting": "[3]; Rate 560 g/ha", "result": 0}, {"measurement": "Plant response rating, Corn", "setting": "[3]; Rate 1120 g/ha", "result": 0}, {"measurement": "Plant response rating, Redroot pigweed", "setting": "[4]; Rate 140 g/ha", "result": 0}, {"measurement": "Plant response rating, Redroot pigweed", "setting": "[4]; Rate 280 g/ha", "result": 60}, {"measurement": "Plant response rating, Redroot pigweed", "setting": "[4]; Rate 560 g/ha", "result": 70}, {"measurement": "Plant response rating, Redroot pigweed", "setting": "[4]; Rate 1120 g/ha", "result": 85}, {"measurement": "Plant response rating Fall panicum", "setting": "[5]; Rate 140 g/ha", "result": 0}, {"measurement": "Plant response rating Fall panicum", "setting": "[5]; Rate 280 g/ha", "result": 0}, {"measurement": "Plant response rating Fall panicum", "setting": "[5]; Rate 560 g/ha", "result": 0}, {"measurement": "Plant response rating Fall panicum", "setting": "[5]; Rate 1120 g/ha", "result": 30}, {"measurement": "Plant response rating Common ragweed", "setting": "[6]; Rate 140 g/ha", "result": 0}, {"measurement": "Plant response rating Common ragweed", "setting": "[6]; Rate 280 g/ha", "result": 0}, {"measurement": "Plant response rating Common ragweed", "setting": "[6]; Rate 560 g/ha", "result": 0}, {"measurement": "Plant response rating Common ragweed", "setting": "[6]; Rate 1120 g/ha", "result": 5}, {"measurement": "Plant response rating, Lambsquarters", "setting": "[7]; Rate 140 g/ha", "result": 0}, {"measurement": "Plant response rating, Lambsquarters", "setting": "[7]; Rate 280 g/ha", "result": 5}, {"measurement": "Plant response rating, Lambsquarters", "setting": "[7]; Rate 560 g/ha", "result": 5}, {"measurement": "Plant response rating, Lambsquarters", "setting": "[7]; Rate 1120 g/ha", "result": 20}, {"measurement": "Plant response rating Field bindweed", "setting": "[8]; Rate 140 g/ha", "result": 0}, {"measurement": "Plant response rating Field bindweed", "setting": "[8]; Rate 280 g/ha", "result": 0}, {"measurement": "Plant response rating Field bindweed", "setting": "[8]; Rate 560 g/ha", "result": 0}, {"measurement": "Plant response rating Field bindweed", "setting": "[8]; Rate 1120 g/ha", "result": 0}, {"measurement": "Plant response rating, Purple nutsedge", "setting": "[9]; Rate 140 g/ha", "result": 0}, {"measurement": "Plant response rating, Purple nutsedge", "setting": "[9]; Rate 280 g/ha", "result": 0}, {"measurement": "Plant response rating, Purple nutsedge", "setting": "[9]; Rate 560 g/ha", "result": 0}, {"measurement": "Plant response rating, Purple nutsedge", "setting": "[9]; Rate 1120 g/ha", "result": 0}, {"measurement": "Plant response rating E. blacknightsh", "setting": "[10]; Rate 140 g/ha", "result": 0}, {"measurement": "Plant response rating E. blacknightsh", "setting": "[10]; Rate 280 g/ha", "result": 0}, {"measurement": "Plant response rating E. blacknightsh", "setting": "[10]; Rate 560 g/ha", "result": 0}, {"measurement": "Plant response rating E. blacknightsh", "setting": "[10]; Rate 1120 g/ha", "result": 0}, {"measurement": "Plant response rating Arrowleaf sida", "setting": "[11]; Rate 140 g/ha", "result": 0}, {"measurement": "Plant response rating Arrowleaf sida", "setting": "[11]; Rate 280 g/ha", "result": 0}, {"measurement": "Plant response rating Arrowleaf sida", "setting": "[11]; Rate 560 g/ha", "result": 0}, {"measurement": "Plant response rating, Johnsongrass", "setting": "[12]; Rate 140 g/ha", "result": 0}, {"measurement": "Plant response rating, Johnsongrass", "setting": "[12]; Rate 280 g/ha", "result": 0}, {"measurement": "Plant response rating, Johnsongrass", "setting": "[12]; Rate 560 g/ha", "result": 0}, {"measurement": "Plant response rating, Johnsongrass", "setting": "[12]; Rate 1120 g/ha", "result": 0}, {"measurement": "Plant response rating Ladysthumb", "setting": "[13]; Rate 140 g/ha", "result": 0}, {"measurement": "Plant response rating Ladysthumb", "setting": "[13]; Rate 280 g/ha", "result": 0}, {"measurement": "Plant response rating Ladysthumb", "setting": "[13]; Rate 560 g/ha", "result": 10}, {"measurement": "Plant response rating Ladysthumb", "setting": "[13]; Rate 1120 g/ha", "result": 10}, {"measurement": "Plant response rating H. beggarticks", "setting": "[14]; Rate 140 g/ha", "result": 0}, {"measurement": "Plant response rating H. beggarticks", "setting": "[14]; Rate 280 g/ha", "result": 0}, {"measurement": "Plant response rating H. beggarticks", "setting": "[14]; Rate 560 g/ha", "result": 0}, {"measurement": "Plant response rating H. beggarticks", "setting": "[14]; Rate 1120 g/ha", "result": 5}]}
{"smiles": "CC(C)Cn1c(=O)on(C(=O)N(c2ccc(F)cc2)C(C)C)c1=O", "note": "[Compound 169]", "values": [{"measurement": "Sandbur plant response rating", "setting": "[15]", "result": 40}, {"measurement": "Plant response rating, C. ragweed", "setting": "[16]", "result": 0}, {"measurement": "Plant response rating, Alexandergrass", "setting": "[17]", "result": 65}, {"measurement": "Purple nutsedge plant response rating", "setting": "[18]", "result": 0}, {"measurement": "Plant response rating, Large crabgrass", "setting": "[19]", "result": 100}, {"measurement": "Plant response rating, Goosegrass", "setting": "[20]", "result": 100}, {"measurement": "Guineagrass plant response rating", "setting": "[21]", "result": 0}, {"measurement": "Plant response rating, Guineagrass", "setting": "[21]", "result": 100}]}
